Laboratory results: patent publication US5375693A (Sepracor, Inc., priority 1994, dated 1994)

Columns and labels:
[1] = test system: airway resistance caused by LTD4 (leukotriene D4); conditions: guinea pigs; cited from earlier work
[2] = in vivo; cited from earlier work
[3] = test system: histamine induced lethality; conditions: guinea pig; cited from earlier work
[4] = cited from earlier work
[5] = test system: allergic rhinitis; conditions: compared with chlorpheniramine; cited from earlier work
[6] = molecular target: histamine H1 -receptor (Bos taurus, UniProt P30546); assay: biochemical; conditions: pH 7.5, read-out: Percent Inhibition
Sequence of histamine H1 -receptor (P30546 whole entry): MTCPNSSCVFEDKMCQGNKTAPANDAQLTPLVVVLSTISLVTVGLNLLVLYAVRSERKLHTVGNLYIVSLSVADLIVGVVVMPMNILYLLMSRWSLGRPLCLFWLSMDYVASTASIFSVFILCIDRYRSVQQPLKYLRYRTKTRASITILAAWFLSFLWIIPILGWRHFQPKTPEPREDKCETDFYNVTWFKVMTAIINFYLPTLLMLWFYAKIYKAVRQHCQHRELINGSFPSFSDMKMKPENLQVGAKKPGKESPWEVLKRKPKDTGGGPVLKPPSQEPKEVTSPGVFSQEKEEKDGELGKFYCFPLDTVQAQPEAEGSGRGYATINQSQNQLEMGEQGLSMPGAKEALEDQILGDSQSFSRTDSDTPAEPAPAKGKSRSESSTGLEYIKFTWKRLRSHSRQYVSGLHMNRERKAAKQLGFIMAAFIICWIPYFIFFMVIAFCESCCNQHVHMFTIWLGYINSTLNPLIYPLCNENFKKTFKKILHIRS
Procedure: 32:1653-1663 (1979). Briefly, membranes from bovine cerebellum were incubated with [^3 H]pyrilamine and varying concentrations of test compound. The reactions were carried out in 50 mM sodium phosphate buffer (pH 7.5) at 25° C. for 30 minutes. The reaction was terminated by rapid vacuum filtration onto glass fiber filters. Radioactivity trapped on the filters was determined and compared to control values to acertain the interaction of the test compound with the H1 -receptor.

| SMILES | increase in airway resistance caused by LTD4 [1] | absorption [2] | metabolism [2] | protection against histamine induced lethality [3] | adverse effects: cardiac arrhythmias ([4]; administration to a human) | occurrence of cardiac arrhythmias ([4]; coadministration with other drugs such as ketoconazole and erythromycin or upon overdose) | sedation, gastrointestinal distress, dry mouth, and constipation or diarrhea ([4]; in vivo) | clinical efficacy in allergic rhinitis [5] | inhibition at 0.001 µM [6] [%] | inhibition at 0.1 µM [6] [%] | inhibition at 10 µM [6] [%] |
| --- | --- | --- | --- | --- | --- | --- | --- | --- | --- | --- | --- |
| CC(C)(C)c1ccc(C(O)CCCN2CCC(C(O)(c3ccccc3)c3ccccc3)CC2)cc1 (racemic) [Terfenadine] | suppressed | well absorbed | extensively metabolized | protects against histamine induced lethality in the guinea pig | cardiac arrhythmias, including ventricular tachyarrhythmias, torsades de pointes, and ventricular fibrillation | an increase in the occurrence of these cardiac arrhythmias | relatively less sedation, gastrointestinal distress, dry mouth, and constipation or diarrhea | slightly less effective than chlorpheniramine |  |  |  |
| CC(C)(C(=O)O)c1ccc([C@H](O)CCCN2CCC(C(O)(c3ccccc3)c3ccccc3)CC2)cc1 [R-(+)-terfenadine carboxylate] |  |  |  |  |  |  |  |  | 12.4 | 45.2 | 87.3 |
| CC(C)(C(=O)O)c1ccc([C@@H](O)CCCN2CCC(C(O)(c3ccccc3)c3ccccc3)CC2)cc1 [S-(-)-terfenadine carboxylate] |  |  |  |  |  |  |  |  | 8.1 | 54.1 | 88.7 |
